This note sets out measurements from PubChem BioAssay (NCI).

What all share (assay): inhibition of tumour cell growth, NCI panel, 48 h
For assay [1], the system named is HCT-116 colon.
Assay [2] concerns HCT-15 colon.
Assay [3] relates to HL-60(TB) leukemia.
The subject of assay [4] is HOP-92 NSCLC.
The subject of assay [5] is MDA-MB-231 breast.
The test system of assay [6] is NCI-H522 lung.
The test system of assay [7] is OVCAR-3 ovarian.
The test system of assay [8] is OVCAR-4 ovarian.
Assay [9] deals with SK-MEL-5 melanoma.
In assay [10] the test system is SNB-75 CNS.

The structures appear in SMILES notation.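 Dose response: 5 concentrations. Exposure: 48 h. Format: 96-well plates. Endpoint: linear interpolation; highest concentration if not reached. Abbreviation: GI50, concentration required for 50% inhibition of growth. TGI is the concentration that stops growth completely.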

For the molecule `CCOC(=O)CC1C(COC(=O)NC)OC(n2cnc3c(NC(=O)Nc4ccccc4)ncnc32)C1O[Si](C)(C)C(C)(C)C` (configuration not stated), the GI50 in assay [1] is 2.33 µM; in assay [2], 11.7 µM; in assay [3], 1.39 µM; in [4], 6.52 µM; in [5], 17.5 µM; in assay [6], 9.58 µM. Further, the GI50 is 2.42 µM in [7], 10.7 µM in assay [8], 5.7 µM in assay [9] and 10.3 µM in [10]. Further, the TGI in assay [1] was 5.38 µM; in [2], greater than 100 µM; in [3], 3.78 µM; in assay [4], 28.9 µM; in [5], greater than 100 µM; in assay [6], greater than 100 µM. Besides, the TGI in assay [7] is 5.6 µM; in assay [8], greater than 100 µM; in assay [9], 18.6 µM; in assay [10], 50.2 µM.
Take `CC(C)(C)CC(C)(C)NCc1cc(C(C)(C)C)cc(CNC(C)(C)CC(C)(C)C)c1O`: the GI50 was 2.1 µM in assay [1]; 3.22 µM in assay [2]; 2.51 µM in assay [3]; 0.548 µM in assay [4]; 1.21 µM in assay [5]; 1.78 µM in assay [6]. Moreover, the GI50 in assay [7] was 2.59 µM; in assay [8] it was 2.62 µM; in assay [9], 1.61 µM; in assay [10], 3.99 µM. Also, the TGI in [1] was 5.78 µM; in assay [2], 12.5 µM; in [3] it was 8.04 µM; in assay [4], 4.2 µM; in [5], 3.78 µM; in [6], 3.66 µM. Besides, the TGI is 7 µM in assay [7], 10.9 µM in assay [8], 2.96 µM in assay [9] and 15.1 µM in assay [10].
For the molecule `COc1ccc2nc3cc([N+](=O)[O-])ccc3c(NCCCN(C)C)c2c1`, the GI50 in [1] is 0.036 µM; in assay [2] it was 3.46 µM; in [3] it was 0.0953 µM; in assay [4], 0.149 µM; in assay [5], 0.394 µM; in assay [6], 0.0199 µM. For the same molecule, the GI50 is 0.594 µM in assay [7], 0.0959 µM in assay [8], 0.187 µM in [9] and 0.31 µM in assay [10]. The TGI in assay [1] was 1.25 µM; in [4] it was 0.651 µM; in [5], 3.45 µM; in [6] it was 0.0597 µM; in [7], 7.86 µM; in assay [8], 0.539 µM. Further, the TGI in assay [9] was 0.832 µM; in [10] it was 1.53 µM.
On to `Cc1cccc(C)c1NC(=O)Nc1ccc(S(N)(=O)=O)cc1`, for which the TGI in assay [1], in assay [2], in assay [3], in [4], in assay [5] and in [6] was greater than 100 µM each time. In addition, the TGI in [7], in [8], in [9] and in assay [10] was greater than 100 µM in each case.
For `COc1ccccc1CNCCCN1C(=O)c2ccc3c4c(ccc(c24)C1=O)C(=O)N(CCCCNCCCN)C3=O`, the GI50 in [1] was 0.648 µM; in assay [2] it was 4.43 µM; in assay [3], 0.867 µM; in assay [4] it was 2.01 µM; in assay [5] it was 2.64 µM; in assay [6] it was 1.46 µM. Moreover, the GI50 was 0.334 µM in assay [7], 0.458 µM in assay [8], 0.467 µM in assay [9] and 7.13 µM in assay [10]. Further, the TGI in assay [1] stood at 1.94 µM; in [2], 18.6 µM; in assay [3] it was 2.7 µM; in assay [4], 7.04 µM; in assay [5], 13.2 µM; in assay [6], 3.25 µM. In addition, the TGI in [7] came out at 1.14 µM; in [8], 1.24 µM; in assay [9] it was 0.95 µM.
Take `COc1ccc(OC)c2c1[nH]c(=O)c1c3ncccc3cn21`: the GI50 in assay [1] is 1.85 µM; in assay [2] it was 3.27 µM; in assay [3], 3.13 µM; in [4], 0.854 µM; in assay [5] it was 4.87 µM; in assay [6], 4.71 µM. For the same molecule, the GI50 in assay [7] is 4.54 µM; in assay [8], 3.56 µM; in assay [9] it was 3.79 µM; in assay [10], 4.39 µM. Moreover, the TGI was 13.2 µM in assay [1]; greater than 100 µM in assay [2]; greater than 100 µM in assay [3]; 6.26 µM in assay [4]; greater than 100 µM in assay [5]; greater than 100 µM in assay [6]. Moreover, the TGI in assay [7] is 18.4 µM; in [8], 17.2 µM; in assay [9], greater than 100 µM; in assay [10] it was 62 µM.
